Measured values as given in PMC10882719 (Frontiers in Neuroscience, 2024).
Like-named read-outs stand apart in the source and are kept apart here.

What was measured:
Type in all cases: cell-based
[1] = target: T1, 168 GPCRs (Homo sapiens, UniProt P08908); conditions: HTR1A
T1 construct: host or cells: PathHunter cell lines
T1 sequence (P08908 1-422): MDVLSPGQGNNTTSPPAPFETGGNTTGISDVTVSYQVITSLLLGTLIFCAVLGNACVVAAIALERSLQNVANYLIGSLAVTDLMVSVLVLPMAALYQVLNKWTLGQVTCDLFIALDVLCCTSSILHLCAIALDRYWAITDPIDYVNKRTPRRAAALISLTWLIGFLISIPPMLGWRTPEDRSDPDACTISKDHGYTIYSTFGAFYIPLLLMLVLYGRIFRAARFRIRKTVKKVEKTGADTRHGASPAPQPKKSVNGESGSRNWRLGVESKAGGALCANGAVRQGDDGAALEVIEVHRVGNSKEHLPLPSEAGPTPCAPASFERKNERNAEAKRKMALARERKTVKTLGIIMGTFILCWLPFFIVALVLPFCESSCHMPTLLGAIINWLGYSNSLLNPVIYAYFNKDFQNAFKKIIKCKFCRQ

[2] = target: T2, 168 GPCRs (Homo sapiens, UniProt P41143); conditions: OPRD1
T2 construct: host or cells: PathHunter cell lines
T2 sequence (P41143 whole entry): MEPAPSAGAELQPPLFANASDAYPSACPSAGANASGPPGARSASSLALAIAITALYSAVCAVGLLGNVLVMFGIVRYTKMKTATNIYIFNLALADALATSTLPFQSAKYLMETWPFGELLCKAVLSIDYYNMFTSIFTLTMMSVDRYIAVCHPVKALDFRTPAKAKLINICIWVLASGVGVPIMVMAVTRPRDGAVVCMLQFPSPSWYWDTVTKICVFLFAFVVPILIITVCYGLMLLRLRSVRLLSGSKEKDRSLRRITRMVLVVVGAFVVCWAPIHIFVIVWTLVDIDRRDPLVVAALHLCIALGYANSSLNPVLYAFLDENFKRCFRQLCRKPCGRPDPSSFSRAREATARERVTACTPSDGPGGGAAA

[3] = target: T3, 168 GPCRs (Homo sapiens, UniProt P41586)
T3 construct: host or cells: PathHunter cell lines
T3 sequence (P41586 21-468): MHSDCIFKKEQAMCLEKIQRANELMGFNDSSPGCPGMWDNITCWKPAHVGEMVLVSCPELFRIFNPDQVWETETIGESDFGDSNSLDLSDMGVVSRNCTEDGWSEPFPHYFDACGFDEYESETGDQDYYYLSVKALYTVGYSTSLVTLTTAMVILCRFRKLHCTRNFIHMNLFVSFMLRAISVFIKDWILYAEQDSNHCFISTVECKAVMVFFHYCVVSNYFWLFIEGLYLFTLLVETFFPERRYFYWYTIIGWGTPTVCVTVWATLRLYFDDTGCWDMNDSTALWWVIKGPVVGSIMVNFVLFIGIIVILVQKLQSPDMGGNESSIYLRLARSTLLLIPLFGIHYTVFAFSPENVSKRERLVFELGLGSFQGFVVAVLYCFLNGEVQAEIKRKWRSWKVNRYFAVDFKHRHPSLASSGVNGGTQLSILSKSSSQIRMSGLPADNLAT

[4] = target: T4, 168 GPCRs (Homo sapiens, UniProt P46092)
T4 construct: host or cells: PathHunter cell lines
T4 sequence (P46092 1-362): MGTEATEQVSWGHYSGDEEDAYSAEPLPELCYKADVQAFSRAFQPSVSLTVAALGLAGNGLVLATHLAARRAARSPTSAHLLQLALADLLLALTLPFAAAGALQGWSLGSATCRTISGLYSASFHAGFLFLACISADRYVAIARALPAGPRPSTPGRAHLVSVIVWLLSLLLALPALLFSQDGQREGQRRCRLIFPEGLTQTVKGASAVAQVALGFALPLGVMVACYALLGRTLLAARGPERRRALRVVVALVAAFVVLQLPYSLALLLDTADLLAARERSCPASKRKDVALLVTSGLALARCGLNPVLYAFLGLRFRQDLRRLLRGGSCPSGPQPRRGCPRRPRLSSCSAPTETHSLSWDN

[5] = target: T5, 168 GPCRs (Homo sapiens, UniProt P47872); conditions: SCTR
T5 construct: host or cells: PathHunter cell lines
T5 sequence (P47872 23-440): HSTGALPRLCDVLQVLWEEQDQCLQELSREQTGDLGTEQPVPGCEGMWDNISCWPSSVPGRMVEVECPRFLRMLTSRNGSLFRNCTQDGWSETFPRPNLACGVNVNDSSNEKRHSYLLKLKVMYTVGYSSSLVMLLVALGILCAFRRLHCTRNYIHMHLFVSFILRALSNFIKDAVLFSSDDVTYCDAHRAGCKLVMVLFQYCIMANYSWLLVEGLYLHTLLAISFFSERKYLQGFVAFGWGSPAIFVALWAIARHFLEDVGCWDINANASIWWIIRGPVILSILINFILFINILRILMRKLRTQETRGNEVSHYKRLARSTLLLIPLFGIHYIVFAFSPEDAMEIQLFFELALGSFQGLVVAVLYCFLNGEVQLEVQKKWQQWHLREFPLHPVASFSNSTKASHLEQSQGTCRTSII

[6] = target: T6, 168 GPCRs (Homo sapiens, UniProt P49190); conditions: PTHR2
T6 construct: host or cells: PathHunter cell lines
T6 sequence (P49190 25-550): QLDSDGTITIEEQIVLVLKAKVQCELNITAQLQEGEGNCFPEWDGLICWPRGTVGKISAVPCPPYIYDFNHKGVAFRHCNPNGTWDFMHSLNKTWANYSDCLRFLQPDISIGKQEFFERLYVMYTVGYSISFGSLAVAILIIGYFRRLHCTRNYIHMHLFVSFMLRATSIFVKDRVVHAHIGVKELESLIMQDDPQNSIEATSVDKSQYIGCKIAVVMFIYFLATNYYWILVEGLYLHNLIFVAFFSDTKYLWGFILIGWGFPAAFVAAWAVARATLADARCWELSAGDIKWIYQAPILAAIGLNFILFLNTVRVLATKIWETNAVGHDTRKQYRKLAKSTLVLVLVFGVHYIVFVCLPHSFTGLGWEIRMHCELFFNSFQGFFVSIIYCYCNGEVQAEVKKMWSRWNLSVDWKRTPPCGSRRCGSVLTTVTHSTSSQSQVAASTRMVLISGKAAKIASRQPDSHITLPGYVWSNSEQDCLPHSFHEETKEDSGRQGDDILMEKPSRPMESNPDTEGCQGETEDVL

[7] = target: T7, 168 GPCRs (Homo sapiens, UniProt Q969V1)
T7 construct: host or cells: PathHunter cell lines
T7 sequence (Q969V1 whole entry): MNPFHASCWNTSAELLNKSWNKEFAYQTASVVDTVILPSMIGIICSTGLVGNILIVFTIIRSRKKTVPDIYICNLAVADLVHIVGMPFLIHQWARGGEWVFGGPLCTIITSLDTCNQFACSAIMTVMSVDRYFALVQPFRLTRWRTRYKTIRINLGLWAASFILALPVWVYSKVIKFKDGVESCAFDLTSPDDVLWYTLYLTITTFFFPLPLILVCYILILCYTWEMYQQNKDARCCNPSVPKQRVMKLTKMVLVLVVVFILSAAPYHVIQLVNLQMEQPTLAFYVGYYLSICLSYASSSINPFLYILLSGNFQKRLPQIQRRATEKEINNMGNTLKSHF

[8] = target: T8, 168 GPCRs (Homo sapiens, UniProt Q96RI0)
T8 construct: host or cells: PathHunter cell lines
T8 sequence (Q96RI0 18-385): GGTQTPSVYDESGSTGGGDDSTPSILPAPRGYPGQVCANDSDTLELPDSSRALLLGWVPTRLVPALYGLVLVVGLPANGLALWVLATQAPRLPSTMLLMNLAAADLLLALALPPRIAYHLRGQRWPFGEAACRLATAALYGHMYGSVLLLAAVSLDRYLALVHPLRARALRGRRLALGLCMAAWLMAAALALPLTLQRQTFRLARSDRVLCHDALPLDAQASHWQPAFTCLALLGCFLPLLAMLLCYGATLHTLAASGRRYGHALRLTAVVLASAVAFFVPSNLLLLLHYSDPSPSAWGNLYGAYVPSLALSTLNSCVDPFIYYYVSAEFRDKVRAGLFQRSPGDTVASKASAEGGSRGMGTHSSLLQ

SMILES | % Agonist Activity ([1]; 1 uM) | % Antagonist Activity ([1]; 1 uM) | % Agonist Activity ([1]; 10 uM) | % Antagonist Activity ([1]; 10 uM) | % Agonist Activity ([2]; Conc 1 uM) | % Antagonist Activity ([2]; Conc 1 uM) | % Agonist Activity ([2]; Conc 10 uM) | % Antagonist Activity ([2]; Conc 10 uM) | % Agonist Activity ([3]; ADCYAP1R1, 1 uM) | % Antagonist Activity ([3]; ADCYAP1R1, 1 uM) | % Agonist Activity ([3]; ADCYAP1R1, 10 uM) | % Antagonist Activity ([3]; ADCYAP1R1, 10 uM) | % Agonist Activity ([4]; CCR10, 1 uM) | % Antagonist Activity ([4]; CCR10, 1 uM) | % Agonist Activity ([4]; CCR10, 10 uM) | % Antagonist Activity ([4]; CCR10, 10 uM) | % Agonist Activity ([5]; Conc 1 uM) | % Antagonist Activity ([5]; Conc 1 uM) | % Agonist Activity ([5]; Conc 10 uM) | % Antagonist Activity ([5]; Conc 10 uM) | other results
CNC(C)Cc1ccc2c(c1)OCO2 (stereo not shown) [MDMA, 3,4-Methylenedioxy methamphetamine, reference compound] | 1.1% | -5.1% | 2.4% | -0.9% | -0.7% | -15.5% | -1.1% | -17.6% | -0.3% | -0.9% | -0.8% | -0.1% | -1.1% | 8.9% | -0.7% | 12.1% | 0.1% | -3.8% | -1.9% | 7.4% | % Agonist Activity ([6]; Conc 1 uM): 0.2%; % Antagonist Activity ([6]; Conc 1 uM): 2.9%; % Agonist Activity ([6]; Conc 10 uM): 0.5%; % Antagonist Activity ([6]; Conc 10 uM): 7%; % Agonist Activity ([7]; MCHR2, 1 uM): 0.8%; % Antagonist Activity ([7]; MCHR2, 1 uM): -25%; % Agonist Activity ([7]; MCHR2, 10 uM): 0.3%; % Antagonist Activity ([7]; MCHR2, 10 uM): -17.3%; % Agonist Activity ([8]; F2RL3, 1 uM): 10.8%; % Antagonist Activity ([8]; F2RL3, 1 uM): 9.6%; % Agonist Activity ([8]; F2RL3, 10 uM): 8.5%; % Antagonist Activity ([8]; F2RL3, 10 uM): 13.3%
CNC(C)C(=O)c1ccc2c(c1)OCO2 (stereo not shown) [methylone] | 0.8% | -5.2% | -0.1% | -6.4% | -2% | -2.7% | -1.5% | 3.5% | -4% | 13.6% | -3% | 12.5% | -2% | 5.4% | -1.8% | 2.6% | -2.6% | 5.3% | -1.4% | 2.5% | % Agonist Activity ([6]; Conc 1 uM): -0.6%; % Antagonist Activity ([6]; Conc 1 uM): -1%; % Agonist Activity ([6]; Conc 10 uM): -0.5%; % Antagonist Activity ([6]; Conc 10 uM): -0.2%; % Agonist Activity ([7]; MCHR2, 1 uM): -1.5%; % Antagonist Activity ([7]; MCHR2, 1 uM): 2%; % Agonist Activity ([7]; MCHR2, 10 uM): -0.7%; % Antagonist Activity ([7]; MCHR2, 10 uM): -4.5%; % Agonist Activity ([8]; F2RL3, 1 uM): 4.3%; % Antagonist Activity ([8]; F2RL3, 1 uM): -11.3%; % Agonist Activity ([8]; F2RL3, 10 uM): 7%; % Antagonist Activity ([8]; F2RL3, 10 uM): -6.9%
